The EC50 is the midpoint of the concentration-response curve.

Bounds are passed on as bounds.

This is an account of results in US11078170B2 (Assembly Biosciences, Inc., priority 2017, dated 2021).

The assay deals with HBV viral production from HepAD38 cells. Nature of the assay: Activity of test compounds on viral production from HepAD38 cells (viral load by qPCR of HBV core sequence in supernatant). In kind it is cell-based. The settings on record: Hepatitis B virus, 120 h, 5 days incubation, HBV DNA in supernatant by qPCR, top concentration 10 μM, read-out: Viral Load EC50 Activity range. The method in brief:
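EC50 and CC50 come from four-parameter fits of supernatant viral load and CellTiter-Glo viability, respectively. Viral load was measured by core-region TaqMan qPCR against HBV DNA standards and compared with DMSO controls. Tet-free HepAD38 cells (50,000/well, 2% FBS) were exposed to compound, highest 10 μM, for 5 days at 37° C.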
A general note: In qPCR the cycle at which signal appears reflects the starting amount.
`Cc1csc([C@@H]2C[C@H](C(=O)Nc3ccc(F)c(Cl)c3)N(C)S(=O)(=O)N2)c1` [HBV-CSU-147-ISO-II, Cis-N-(3-chloro-4-fluorophenyl)-2-methyl-5-(4-methylthiophen-2-yl)-1,2,6-thiadiazinane-3-carboxamide 1,1-dioxide]: the EC50 is above 5000 nM.

As to `CN1[C@H](C(=O)Nc2ccc(F)c(Cl)c2)C[C@H](c2cc(-c3ccccc3)cs2)NS1(=O)=O` [HBV-CSU-148-ISO-I, Cis-N-(3-chloro-4-fluorophenyl)-2-methyl-5-(4-phenylthiophen-2-yl)-1,2,6-thiadiazinane-3-carboxamide 1,1-dioxide], the 50% effective concentration (EC50) was below 1000 nM.

Take `CN1[C@@H](C(=O)Nc2ccc(F)c(Cl)c2)C[C@@H](c2cc(-c3ccccc3)cs2)NS1(=O)=O` [HBV-CSU-148-ISO-II, Cis-N-(3-chloro-4-fluorophenyl)-2-methyl-5-(4-phenylthiophen-2-yl)-1,2,6-thiadiazinane-3-carboxamide 1,1-dioxide]: the concentration for a half-maximal effect (EC50) is 1000 to 5000 nM.

For the compound `CN1[C@H](C(=O)Nc2ccc(F)c(Cl)c2)C[C@H](c2cc(Cc3ccccc3)cs2)NS1(=O)=O` [HBV-CSU-149-ISO-I, Cis-(4-benzylthiophen-2-yl)-N-(3-chloro-4-fluorophenyl)-2-methyl-1,2,6-thiadiazinane-3-carboxamide 1,1-dioxide], the EC50 is below 1000 nM.

As to `CN1[C@@H](C(=O)Nc2ccc(F)c(Cl)c2)C[C@@H](c2cc(Cc3ccccc3)cs2)NS1(=O)=O` [HBV-CSU-149-ISO-II, Cis-(4-benzylthiophen-2-yl)-N-(3-chloro-4-fluorophenyl)-2-methyl-1,2,6-thiadiazinane-3-carboxamide 1,1-dioxide], the EC50 lay in the range of 1000 to 5000 nM.

As to `CN1[C@H](C(=O)Nc2ccc(F)c(Cl)c2)C[C@H](c2ccc(-c3ccc(C#N)c(F)c3)s2)NS1(=O)=O` [HBV-CSU-156-ISO-I, Cis-N-(3-chloro-4-fluorophenyl)-5-(5-(4-cyano-3-fluorophenyl)thiophen-2-yl)-2-methyl-1,2,6-thiadiazinane-3-carboxamide 1,1-dioxide], the EC50 is below 1000 nM.

In the case of `CN1[C@@H](C(=O)Nc2ccc(F)c(Cl)c2)C[C@@H](c2ccc(-c3ccc(C#N)c(F)c3)s2)NS1(=O)=O` [HBV-CSU-156-ISO-II, Cis-N-(3-chloro-4-fluorophenyl)-5-(5-(4-cyano-3-fluorophenyl)thiophen-2-yl)-2-methyl-1,2,6-thiadiazinane-3-carboxamide 1,1-dioxide], the EC50 was above 5000 nM.

In the case of `CN1C(C(=O)Nc2ccc(F)c(Cl)c2)CC(c2ccc(-c3ccc(Br)c(F)c3)s2)NS1(=O)=O` (stereo not drawn) [HBV-CSU-157, Cis-N-(3-chloro-4-fluorophenyl)-5-(5-(4-bromo-3-fluorophenyl)thiophen-2-yl)-2-methyl-1,2,6-thiadiazinane-3-carboxamide 1,1-dioxide], the half-maximal effective concentration (EC50) is 1000 to 5000 nM.

With `CN1[C@H](C(=O)Nc2ccc(F)c(Cl)c2)C[C@H](c2ccc(-c3ccc(C(F)(F)F)nc3)s2)NS1(=O)=O` [HBV-CSU-158-ISO-I, Cis-N-(3-chloro-4-fluorophenyl)-2-methyl-5-(5-(6-(trifluoromethyl)pyridin-3-yl)thiophen-2-yl)-1,2,6-thiadiazinane-3-carboxamide 1,1-dioxide], the half-maximal effective concentration (EC50) is below 1000 nM.

Take `CN1[C@@H](C(=O)Nc2ccc(F)c(Cl)c2)C[C@@H](c2ccc(-c3ccc(C(F)(F)F)nc3)s2)NS1(=O)=O` [HBV-CSU-158-ISO-II, Cis-N-(3-chloro-4-fluorophenyl)-2-methyl-5-(5-(6-(trifluoromethyl)pyridin-3-yl)thiophen-2-yl)-1,2,6-thiadiazinane-3-carboxamide 1,1-dioxide]: the EC50 was above 5000 nM.

On to `CN1[C@@H](C(=O)Nc2ccc(F)c(Cl)c2)C[C@@H](c2ccc(-c3cccnc3)s2)NS1(=O)=O` [HBV-CSU-159-ISO-I, Cis-N-(3-chloro-4-fluorophenyl)-2-methyl-5-(5-(pyridin-3-yl)thiophen-2-yl)-1,2,6-thiadiazinane-3-carboxamide 1,1-dioxide], for which the EC50 was in the range of 1000 to 5000 nM.

Turning to `CN1[C@H](C(=O)Nc2ccc(F)c(Cl)c2)C[C@H](c2ccc(-c3cccnc3)s2)NS1(=O)=O` [HBV-CSU-159-ISO-II, Cis-N-(3-chloro-4-fluorophenyl)-2-methyl-5-(5-(pyridin-3-yl)thiophen-2-yl)-1,2,6-thiadiazinane-3-carboxamide 1,1-dioxide], the concentration giving a half-maximal response (EC50) is below 1000 nM.

Turning to `CN1[C@H](C(=O)Nc2ccc(F)c(Cl)c2)C[C@H](c2ccc(-c3ccccn3)s2)NS1(=O)=O` [HBV-CSU-160-ISO-I, Cis-N-(3-chloro-4-fluorophenyl)-2-methyl-5-(5-(pyridin-2-yl)thiophen-2-yl)-1,2,6-thiadiazinane-3-carboxamide 1,1-dioxide], the half-maximal effective concentration (EC50) is below 1000 nM.

Turning to `CN1[C@@H](C(=O)Nc2ccc(F)c(Cl)c2)C[C@@H](c2ccc(-c3ccccn3)s2)NS1(=O)=O` [HBV-CSU-160-ISO-II, Cis-N-(3-chloro-4-fluorophenyl)-2-methyl-5-(5-(pyridin-2-yl)thiophen-2-yl)-1,2,6-thiadiazinane-3-carboxamide 1,1-dioxide], the half-maximal effective concentration (EC50) lay within 1000 to 5000 nM.

`CN1[C@H](C(=O)Nc2ccc(F)c(Cl)c2)C[C@H](c2ccc(-c3cnn(C)c3)s2)NS1(=O)=O` [HBV-CSU-161-ISO-I, Cis-N-(3-chloro-4-fluorophenyl)-2-methyl-5-(5-(1-methyl-1H-pyrazol-4-yl)thiophen-2-yl)-1,2,6-thiadiazinane-3-carboxamide 1,1-dioxide]: the EC50 was below 1000 nM.

Regarding `CN1[C@@H](C(=O)Nc2ccc(F)c(Cl)c2)C[C@@H](c2ccc(-c3cnn(C)c3)s2)NS1(=O)=O` [HBV-CSU-161-ISO-II, Cis-N-(3-chloro-4-fluorophenyl)-2-methyl-5-(5-(1-methyl-1H-pyrazol-4-yl)thiophen-2-yl)-1,2,6-thiadiazinane-3-carboxamide 1,1-dioxide], the 50% effective concentration (EC50) is 1000 to 5000 nM.

`CN1C(C(=O)Nc2ccc(F)c(Cl)c2)CC(c2ccc(-c3cccs3)s2)NS1(=O)=O` (stereo not drawn) [HBV-CSU-162, Cis-N-5-([2,2′-bithiophen]-5-yl)-N-(3-chloro-4-fluorophenyl)-2-methyl-1,2,6-thiadiazinane-3-carboxamide 1,1-dioxide]: the concentration giving a half-maximal response (EC50) is below 1000 nM.

With `CN1[C@H](C(=O)Nc2ccc(F)c(Cl)c2)C[C@H](c2ccc(-c3cccs3)s2)NS1(=O)=O` [HBV-CSU-162-ISO-I, Cis-N-5-([2,2′-bithiophen]-5-yl)-N-(3-chloro-4-fluorophenyl)-2-methyl-1,2,6-thiadiazinane-3-carboxamide 1,1-dioxide], the 50% effective concentration (EC50) is below 1000 nM.

In the case of `CN1[C@@H](C(=O)Nc2ccc(F)c(Cl)c2)C[C@@H](c2ccc(-c3cccs3)s2)NS1(=O)=O` [HBV-CSU-162-ISO-II, Cis-N-5-([2,2′-bithiophen]-5-yl)-N-(3-chloro-4-fluorophenyl)-2-methyl-1,2,6-thiadiazinane-3-carboxamide 1,1-dioxide], the concentration for a half-maximal effect (EC50) was in the range of 1000 to 5000 nM.

With `CN1[C@H](C(=O)Nc2ccc(F)c(Cl)c2)C[C@H](c2ccc(-c3ccc(NS(C)(=O)=O)cc3)s2)NS1(=O)=O` [HBV-CSU-163-ISO-I, Cis-N-(3-chloro-4-fluorophenyl)-2-methyl-5-(5-(4-(methylsulfonamido)phenyl)thiophen-2-yl)-1,2,6-thiadiazinane-3-carboxamide 1,1-dioxide], the concentration for a half-maximal effect (EC50) is below 1000 nM.

As to `CN1[C@H](C(=O)Nc2ccc(F)c(Cl)c2)C[C@H](c2cc(-c3ccc(C#N)c(F)c3)cs2)NS1(=O)=O` [HBV-CSU-164-ISO-I, Cis-N-(3-chloro-4-fluorophenyl)-5-(4-(4-cyano-3-fluorophenyl)thiophen-2-yl)-2-methyl-1,2,6-thiadiazinane-3-carboxamide 1,1-dioxide], the concentration for a half-maximal effect (EC50) is below 1000 nM.

In the case of `CN1[C@@H](C(=O)Nc2ccc(F)c(Cl)c2)C[C@@H](c2cc(-c3ccc(C#N)c(F)c3)cs2)NS1(=O)=O` [HBV-CSU-164-ISO-II, Cis-N-(3-chloro-4-fluorophenyl)-5-(4-(4-cyano-3-fluorophenyl)thiophen-2-yl)-2-methyl-1,2,6-thiadiazinane-3-carboxamide 1,1-dioxide], the EC50 is above 5000 nM.

Turning to `CN1[C@H](C(=O)Nc2ccc(F)c(Cl)c2)C[C@H](c2cc(-c3ccc(C(F)(F)F)nc3)cs2)NS1(=O)=O` [HBV-CSU-166-ISO-I, Cis-N-(3-chloro-4-fluorophenyl)-2-methyl-5-(4-(6-(trifluoromethyl)pyridin-3-yl)thiophen-2-yl)-1,2,6-thiadiazinane-3-carboxamide 1,1-dioxide], the EC50 is below 1000 nM.

As to `CN1[C@@H](C(=O)Nc2ccc(F)c(Cl)c2)C[C@@H](c2cc(-c3ccc(C(F)(F)F)nc3)cs2)NS1(=O)=O` [HBV-CSU-166-ISO-II, Cis-N-(3-chloro-4-fluorophenyl)-2-methyl-5-(4-(6-(trifluoromethyl)pyridin-3-yl)thiophen-2-yl)-1,2,6-thiadiazinane-3-carboxamide 1,1-dioxide], the EC50 was above 5000 nM.

On to `CN1[C@H](C(=O)Nc2ccc(F)c(Cl)c2)C[C@H](c2cc(-c3cccnc3)cs2)NS1(=O)=O` [HBV-CSU-167-ISO-I, Cis-N-(3-chloro-4-fluorophenyl)-2-methyl-5-(4-(pyridin-3-yl)thiophen-2-yl)-1,2,6-thiadiazinane-3-carboxamide 1,1-dioxide], for which the EC50 was below 1000 nM.

With `CN1[C@@H](C(=O)Nc2ccc(F)c(Cl)c2)C[C@@H](c2cc(-c3cccnc3)cs2)NS1(=O)=O` [HBV-CSU-167-ISO-II, Cis-N-(3-chloro-4-fluorophenyl)-2-methyl-5-(4-(pyridin-3-yl)thiophen-2-yl)-1,2,6-thiadiazinane-3-carboxamide 1,1-dioxide], the EC50 is above 5000 nM.

Consider `CN1[C@@H](C(=O)Nc2ccc(F)c(Cl)c2)C[C@@H](c2cc(-c3ccccn3)cs2)NS1(=O)=O` [HBV-CSU-168-ISO-I, Cis-N-(3-chloro-4-fluorophenyl)-2-methyl-5-(4-(pyridin-2-yl)thiophen-2-yl)-1,2,6-thiadiazinane-3-carboxamide 1,1-dioxide], for which the concentration giving a half-maximal response (EC50) is 1000 to 5000 nM.
